The results in this text go back to PMC9106665 (Communications Biology, 2022).

Data set [1] has as its system E. coli BL21(DE3) strain overexpressing DfrA1. As to the kind of experiment: Antibacterial activity (MIC). The conditions noted are these: Escherichia coli. Type of data set: cell-based.
The test system of data set [2] is E. coli BL21(DE3) strain overexpressing EcDHFR wt. As to the kind of experiment: Antibacterial activity (MIC). The class given is cell-based. As to conditions: Escherichia coli.
The test system of data set [3] is E. coli JW0451 acrB mutant strain. The data set is described as follows: microbe, parasite or virus in culture. The class given is cell-based. The conditions noted are these: Escherichia coli, w/o SMX; 80% inhibition of growth, 18 to 20 hours, 37°C. As for the experimental part: Preparation, handling of cultures and the antibiotic susceptibility testing was performed according to CLSI guidelines. […] The compounds at the highest concentrations alone and paired with Sulfamethoxazole (1:19 w/w ratio) were then added to the first well before being serially diluted (2-fold) throughout the plate, leaving the last well with broth only (negative growth control). Next, 50 μl of the inoculum was added to each well.

The test system of data set [4] is E. coli BL21(DE3) strain overexpressing DfrA5. As to the kind of experiment: Antibacterial activity (MIC). As to conditions: Escherichia coli. Type of data set: cell-based.
Another data set addresses DfrA5 (Escherichia coli, UniProt P11731). As to the kind of experiment: biochemical. The arrangement: species or system E. coli. The protocol: The assay was performed at room temperature using the Shimadzu UV/visible spectrophotometer. A standard reaction buffer contained 20 mM TES, pH 7.0, 50 mM KCl, 10 mM β-mercapthoethanol, 0.5 mM EDTA, and 1 mg/ml BSA. […] All measurements were performed in triplicate, from at least two independent experiments.

Data set [5] concerns NC(=O)C1=CN([C@H]2O[C@H](COP(=O)(O)OP(=O)(O)OC[C@H]3O[C@@H](n4cnc5c(N)ncnc54)[C@H](OP(=O)(O)O)[C@@H]3O)[C@@H](O)[C@H]2O)C=CC1. As to the kind of experiment: purified protein, by the assay type. Type of data set: biochemical, E. coli. The conditions noted are these: other: varied substrate 1 to 200 µM, 25 °C. The text has this:
(§1) using a nonlinear regression method in GraphPad Prism 9.2.0 software. To determine the turnover number (kcat) using the same model, the enzyme concentration (based on the protein concentration determined by Bradford assay) was constrained to a constant value and analyzed by the following equation (Eq. 3):3 Y=Et×kcat×X/(Km+X)

The subject of data set [6] is Nc1nc2c(c(=O)[nH]1)N=C(CNc1ccc(C(=O)N[C@@H](CCC(=O)O)C(=O)O)cc1)CN2. The data set is described as follows: purified protein, by the assay type. The conditions noted are these: other: varied substrate 1 to 200 µM, 25 °C. The class given is biochemical, E. coli.
From the text: as §1

In data set [7] the test system is NC(=O)C1=CN([C@H]2O[C@H](COP(=O)(O)OP(=O)(O)OC[C@H]3O[C@@H](n4cnc5c(N)ncnc54)[C@H](OP(=O)(O)O)[C@@H]3O)[C@@H](O)[C@H]2O)C=CC1. The data set is described as follows: Steady-state kinetic measurements. The class given is biochemical, Escherichia coli. The conditions noted are these: other: varied substrate 1 to 200 µM, 25 °C.
The target in another data set is T1, EcDHFR L28Q (Escherichia coli, UniProt P0ABQ4, L28Q).
T1 construct: using E. coli DHFR template previously synthesized by GeneScript; made in house; host or cells: E. coli BL21(DE3)
T1 sequence (P0ABQ4 1-159 L28Q): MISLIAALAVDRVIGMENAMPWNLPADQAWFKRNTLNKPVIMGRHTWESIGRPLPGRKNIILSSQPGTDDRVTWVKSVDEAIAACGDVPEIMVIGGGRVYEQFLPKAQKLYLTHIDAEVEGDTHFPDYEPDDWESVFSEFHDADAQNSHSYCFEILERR
As to the kind of experiment: Steady-state kinetic measurements. The class given is biochemical. As to conditions: varied substrate 1 to 200 µM, 25 °C.
From the text: as §1

In the next data set the target is T2, EcDHFR D27E (Escherichia coli, UniProt P0ABQ4, D27E).
T2 construct: using E. coli DHFR template previously synthesized by GeneScript; made in house; host or cells: E. coli BL21(DE3)
T2 sequence (P0ABQ4 1-159 D27E): T1 sequence (P0ABQ4 1-159 L28Q) with D27E, Q28L
The data set is described as follows: Steady-state kinetic measurements. As to conditions: varied substrate 1 to 200 µM, 25 °C. The class given is biochemical.
From the text: as §1

Another data set concerns the target T3, EcDHFR D27E/L28Q (Escherichia coli, UniProt P0ABQ4, D27E/L28Q).
T3 construct: using E. coli DHFR template previously synthesized by GeneScript; made in house; host or cells: E. coli BL21(DE3)
T3 sequence (P0ABQ4 1-159 D27E/L28Q): T1 sequence (P0ABQ4 1-159 L28Q) with D27E
The data set is described as follows: Steady-state kinetic measurements. Type of data set: biochemical. The conditions noted are these: varied substrate 1 to 200 µM, 25 °C.
From the text: as §1

Changes are numbered by the printed parent chain. Values after ≈ are worked out from the molar mass of the structure shown.

DfrA5, sequence (P11731 whole entry): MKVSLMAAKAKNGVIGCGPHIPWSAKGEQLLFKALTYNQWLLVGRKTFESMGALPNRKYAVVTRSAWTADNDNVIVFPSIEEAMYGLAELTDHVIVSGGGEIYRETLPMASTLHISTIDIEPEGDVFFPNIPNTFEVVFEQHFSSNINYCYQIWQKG

For the molecule `COc1cc(Cc2cnc(N)nc2N)cc(OC)c1OC` [Trimethoprim, reference compound], the MIC is greater than 20 µg/mL in [1] (w/ SMX (1:19)); greater than 20 µg/mL in data set [1] (w/o SMX); 0.078 µg/mL (≈ 0.269 µM) in [2] (w/ SMX (1:19)); 0.625 µg/mL (≈ 2.15 µM) in data set [2] (w/o SMX); 0.04 µg/mL (≈ 0.138 µM) in [3]; greater than 20 µg/mL in data set [4] (w/ SMX (1:19)). The same molecule came in with an MIC in [4] (w/o SMX) greater than 20 µg/mL.
As for `COc1cc(Cc2cnc(N)nc2N)c2c(c1OC)OC(C1CC1)C=C2` (centres unmarked) [Iclaprim, reference compound], the Ki at DfrA5 amounted to 99 ± 13.9 nM.
Turning to DfrA5 (Escherichia coli), in data set [5], the Km came to 19.9 ± 6.1 µM, the kcat is 34.3 ± 3.3 s⁻¹ and the kcat/Km came out at 1.7e+06 ± 500000 M⁻¹ s⁻¹. In [6], the Km is reported as 24.2 ± 6.6 µM, the kcat came to 31.4 ± 3.2 s⁻¹ and the kcat/Km stood at 1.3e+06 ± 400000 M⁻¹ s⁻¹.
Turning to `CN(Cc1cnc2nc(N)nc(N)c2n1)c1ccc(C(=O)N[C@@H](CCC(=O)O)C(=O)O)cc1` [Methotrexate, reference compound], the Ki on DfrA5 was 579 ± 73.8 nM.
Turning to EcDHFR (Escherichia coli K-12), in data set [7], the Michaelis constant (Km) was found to be 5.8 ± 0.8 µM and the kcat/Km turned out to be 600000 ± 70000 M⁻¹ s⁻¹.
With `Nc1nc2c(c(=O)[nH]1)N=C(CNc1ccc(C(=O)N[C@@H](CCC(=O)O)C(=O)O)cc1)CN2` [DHF, dihydrofolate], the Km was 5.2 ± 1 µM on EcDHFR L28Q, 15.4 ± 2.1 µM on EcDHFR D27E and 56.6 ± 8 µM on EcDHFR D27E/L28Q.

As a reminder, the Ki is the dissociation constant of the complex between target and ligand, obtained from inhibition or displacement. High values mean weaker binding, low ones tighter binding. The term Km denotes the concentration of substrate that gives half-maximal velocity. As a reminder, the kcat is the number of substrate molecules converted per active site and unit of time at saturation. Broadly, the kcat/Km is the turnover number divided by the Michaelis constant.
